Experimental data taken from paper PMC10008561 (Nature Communications, 2023).
“And” between values parts separate entries of the source, which are not always exact repeats. Equal values may be shown once. Read-outs that look alike come from different tables or passages of the source.

Assays:
human KOR (Gi1) = biological target: T1, human KOR (Gi1) (Homo sapiens, UniProt P41145); assay: cell-based
T1 construct: expressed in transfected cells; host or cells: HEK293T

human KOR (Gi2) = biological target: T2, human KOR (Gi2) (Homo sapiens, UniProt P41145); assay: cell-based; conditions: HEK-293T
T2 construct: expressed in transfected cells; host or cells: HEK293T

human KOR (Gi3) = biological target: T3, human KOR (Gi3) (Homo sapiens, UniProt P41145); assay: cell-based; conditions: HEK-293T
T3 construct: expressed in transfected cells; host or cells: HEK293T

human KOR (GoA) = biological target: T4, human KOR (GoA) (Homo sapiens, UniProt P41145); assay: cell-based; conditions: HEK-293T
T4 construct: expressed in transfected cells; host or cells: HEK293T

human KOR (GoB) = biological target: T5, human KOR (GoB) (Homo sapiens, UniProt P41145); assay: cell-based; conditions: HEK-293T
T5 construct: expressed in transfected cells; host or cells: HEK293T

human KOR (Gz) = biological target: T6, human KOR (Gz) (Homo sapiens, UniProt P41145); assay: cell-based; conditions: HEK-293T
T6 construct: expressed in transfected cells; host or cells: HEK293T

human KOR (Gustducin) [1] = biological target: T7, human KOR (Gustducin) (Homo sapiens, UniProt P41145); assay: cell-based
T7 construct: expressed in transfected cells; host or cells: HEK293T

human KOR (β-arrestin 1) = biological target: T8, human KOR (β-arrestin 1) (Homo sapiens, UniProt P41145); assay: cell-based; conditions: HEK-293T
T8 construct: expressed in transfected cells; host or cells: HEK293T

human KOR (β-arrestin 2) = biological target: T9, human KOR (β-arrestin 2) (Homo sapiens, UniProt P41145); assay: cell-based; conditions: HEK-293T
T9 construct: expressed in transfected cells; host or cells: HEK293T

human KOR [2] = biological target: T10, human KOR (Homo sapiens, UniProt P41145); assay: cell-based
human KOR [3] = biological target: T11, human KOR (Homo sapiens, UniProt P41145, Q115N); assay: cell-based; conditions: HEK-293T
T11 construct: expressed in transfected cells; host or cells: HEK 293T (ATCC, CRL-3216)

human KOR [4] = biological target: T12, human KOR (Homo sapiens, UniProt P41145, W287A); assay: cell-based; conditions: HEK-293T
T12 construct: expressed in transfected cells; host or cells: HEK 293T (ATCC, CRL-3216)

human KOR [5] = biological target: T10, human KOR; assay: cell-based; remark: listed apart in the source
human KOR [6] = biological target: T11, human KOR; assay: cell-based; conditions: HTLA
human KOR [7] = biological target: T12, human KOR; assay: cell-based; conditions: HTLA
KOR [8] = type: cell-based, human
KOR [9] = assay: Bias factor, Gz vs β-arrestin2 (BRET), U50,488 as reference; type: cell-based, human
human KOR [10] = biological target: T10, human KOR; assay: cell-based; design: expressed in transfected cells; host or cells: HEK 293T (ATCC, CRL-3216); conditions: HEK-293T
human KOR [11] = biological target: T10, human KOR; assay: cell-based; design: expressed in transfected cells; host or cells: HEK 293T (ATCC, CRL-3216); conditions: HTLA
KOR Q115N [12] = biological target: T13, KOR Q115N (Homo sapiens, UniProt P41145, Q115N); assay: cell-based; design: expressed in transfected cells; host or cells: HEK 293T (ATCC, CRL-3216); conditions: read-out: cAMP response (Figure S4C), KOR Q115N, Log [Drug], replicate values
Target sequence in this assay (P41145 whole entry Q115N): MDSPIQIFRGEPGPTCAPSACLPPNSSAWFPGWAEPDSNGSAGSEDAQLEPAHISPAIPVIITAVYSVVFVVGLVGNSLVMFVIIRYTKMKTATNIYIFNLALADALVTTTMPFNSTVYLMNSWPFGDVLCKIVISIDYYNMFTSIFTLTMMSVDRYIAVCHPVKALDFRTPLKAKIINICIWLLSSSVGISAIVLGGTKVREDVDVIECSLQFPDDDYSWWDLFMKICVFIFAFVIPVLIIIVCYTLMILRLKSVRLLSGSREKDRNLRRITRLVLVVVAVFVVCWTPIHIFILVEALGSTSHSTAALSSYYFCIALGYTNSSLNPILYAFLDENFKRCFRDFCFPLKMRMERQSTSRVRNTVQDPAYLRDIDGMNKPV

KOR Q115N [13] = biological target: T13, KOR Q115N; assay: cell-based; design: TEV cleavage site (C); tTA transcription factor (C); expressed in transfected cells; host or cells: HTLA cells; conditions: read-out: Tango response (Figure S4C), KOR Q115N, Log [Drug], replicate values
Target sequence in this assay (P41145 whole entry Q115N): as above
Target sequence in this assay (P32121 whole entry partner): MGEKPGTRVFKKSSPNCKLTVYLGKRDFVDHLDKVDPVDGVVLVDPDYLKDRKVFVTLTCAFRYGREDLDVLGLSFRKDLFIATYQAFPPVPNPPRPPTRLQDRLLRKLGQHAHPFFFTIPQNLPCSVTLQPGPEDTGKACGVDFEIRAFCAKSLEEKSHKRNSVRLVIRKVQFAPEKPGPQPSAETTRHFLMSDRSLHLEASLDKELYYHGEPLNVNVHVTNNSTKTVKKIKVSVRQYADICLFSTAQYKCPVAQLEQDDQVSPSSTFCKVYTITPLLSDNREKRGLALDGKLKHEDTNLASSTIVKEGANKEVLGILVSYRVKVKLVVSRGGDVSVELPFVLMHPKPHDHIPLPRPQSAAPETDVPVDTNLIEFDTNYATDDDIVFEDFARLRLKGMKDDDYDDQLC

human KOR (Gustducin) [14] = conditions: cited from earlier work
[15] = read-out: Gz (Figure 5A concentration-response, replicate values)
[16] = read-out: βArrestin1 (Figure 5A concentration-response, replicate values)
[17] = read-out: cAMP response (Figure S4C)
[18] = read-out: Tango response (Figure S4C)

T8 sequence (P41145 whole entry): as the sequence (P41145 whole entry Q115N) above, with N115Q counted along it
T6 sequence (P41145 whole entry): as the sequence (P41145 whole entry Q115N) above, with N115Q counted along it
T10 sequence (P41145 whole entry): as the sequence (P41145 whole entry Q115N) above, with N115Q counted along it
T12 sequence (P41145 whole entry W287A): as the sequence (P41145 whole entry Q115N) above, with N115Q, W287A counted along it
T11 sequence (P41145 whole entry Q115N): as the sequence (P41145 whole entry Q115N) above
T1 sequence (P41145 whole entry): as the sequence (P41145 whole entry Q115N) above, with N115Q counted along it
T7 sequence (P41145 whole entry): as the sequence (P41145 whole entry Q115N) above, with N115Q counted along it
T9 sequence (P41145 whole entry): as the sequence (P41145 whole entry Q115N) above, with N115Q counted along it
T5 sequence (P41145 whole entry): as the sequence (P41145 whole entry Q115N) above, with N115Q counted along it
T3 sequence (P41145 whole entry): as the sequence (P41145 whole entry Q115N) above, with N115Q counted along it
T2 sequence (P41145 whole entry): as the sequence (P41145 whole entry Q115N) above, with N115Q counted along it
T4 sequence (P41145 whole entry): as the sequence (P41145 whole entry Q115N) above, with N115Q counted along it

Compound `COC(=O)N1CCN(C(=O)Cc2ccc(Cl)c(Cl)c2)C2C(N3CCCC3)CCCC21` (centres unmarked) [WMS-X600] has an Emax% (human KOR (Gi1)) of 101.3%, an Emax (human KOR (Gi1); HEK-293T) of 84 ± 8% and an Emax (human KOR (Gi2)) of 99.3%. It also gave an Emax (human KOR (Gi3)) of 99.2%, an Emax (human KOR (GoA)) of 99.8% and an Emax (human KOR (GoB)) of 99.2%. It also gave an Emax (human KOR (Gz)) of 97.7%, an activation at 0.001 µM (human KOR (Gz); [15]) of 86.2% and an activation at 0.01 µM (human KOR (Gz); [15]) of 100%. For the same compound, the activation at 0.1 µM (human KOR (Gz); [15]) was 101%, the activation at 1 µM (human KOR (Gz); [15]) was 95.2% and the activation at 10 µM (human KOR (Gz); [15]) was 97.8%. The Emax% (human KOR (Gustducin) [1]) was 94%, the Emax (human KOR (Gustducin) [1]; HEK-293T) was 93.6% and the Emax (human KOR (β-arrestin 1)) was 93.8%. It also gave an activation at 0.01 µM (human KOR (β-arrestin 1); [16]) of 33.5%, an activation at 1 µM (human KOR (β-arrestin 1); [16]) of 86.2% and an activation at 10 µM (human KOR (β-arrestin 1); [16]) of 91.8%. For the same compound, the Emax (human KOR (β-arrestin 2)) was 102 ± 6%, the “increase of potency for G protein signaling” value (human KOR [2]) was 10 fold and the “loss of potency in G protein activation” value (human KOR [2]) was 82 fold. The Emax (human KOR [3]) was 103 ± 1%, the Emax (human KOR [4]) was 98 ± 5% and the “increase of potency for arrestin signaling” value (human KOR [5]) was 5 fold. The “loss of potency in arrestin recruitment” value (human KOR [5]) was 232 fold, the Emax (human KOR [6]) was 110 ± 6% and the Emax (human KOR [7]) was 108 ± 7%. The “ΔΔLog τ/KA (95% confidence interval)” value (KOR [8]) was 1 (0.81-1.19), the “bias factor towards arrestin pathway” value (KOR [9]) was 8.6 and the Emax (human KOR [10]) was 95 ± 3%. The activation at 31.62 pM (human KOR [10]; [17]) was 34.2%, the activation at 0.0001 µM (human KOR [10]; [17]) was 56.7% and the activation at 0.001 µM (human KOR [10]; [17]) was 78.9%. For the same compound, the activation at 0.01 µM (human KOR [10]; [17]) was 101%, the activation at 0.1 µM (human KOR [10]; [17]) was 103% and the activation at 1 µM (human KOR [10]; [17]) was 91.1%. For the same compound, the activation at […] (human KOR [10]; [17]) was 68.9% and 97.5% and 102% and 90.6%, the Emax (human KOR [11]) was 96 ± 5% and the activation at 0.001 µM (human KOR [11]; [18]) was 78.7%. For the same compound, the activation at 0.1 µM (human KOR [11]; [18]) was 116%, the activation at 1 µM (human KOR [11]; [18]) was 112% and the activation at 10 µM (human KOR [11]; [18]) was 123%. The activation at […] (human KOR [11]; [18]) was 43.5% and 72.6% and 125%, the activation at 1 µM (KOR Q115N [12]; M -6) was 99.1% and the activation at […] (KOR Q115N [12]; M -6.5) was 107%. It also gave an activation at 0.1 µM (KOR Q115N [12]; M -7) of 105%, an activation at […] (KOR Q115N [12]; M -7.5) of 104% and an activation at 0.01 µM (KOR Q115N [12]; M -8) of 103%. For the same compound, the activation at […] (KOR Q115N [12]; M -8.5) was 100%, the activation at 0.001 µM (KOR Q115N [12]; M -9) was 97.8% and the activation at […] (KOR Q115N [12]; M -9.5) was 101%. It also gave an activation at 0.0001 µM (KOR Q115N [12]; M -10) of 92.8%, an activation at 31.62 pM (KOR Q115N [12]; M -10.5) of 81.3% and an activation at 10 pM (KOR Q115N [12]; M -11) of 56.3%. The activation at 3.162 pM (KOR Q115N [12]; M -11.5) was 33.3%, the activation at 10 µM (KOR Q115N [13]; M -5) was 120% and the activation at […] (KOR Q115N [13]; M -5.5) was 124%. It also gave an activation at 1 µM (KOR Q115N [13]; M -6) of 123%, an activation at […] (KOR Q115N [13]; M -6.5) of 107% and an activation at 0.1 µM (KOR Q115N [13]; M -7) of 112%. The activation at 0.01 µM (KOR Q115N [13]; M -8) was 116%, the activation at […] (KOR Q115N [13]; M -9.5) was 72.6% and the activation at 0.0001 µM (KOR Q115N [13]; M -10) was 78.7%. The activation at 31.62 pM (KOR Q115N [13]; M -10.5) was 43.5%.
In the case of dynorphin A 1–13, the “activity at Gustducin” value (human KOR (Gustducin) [14]) is listed as “nearly inactive”.
